Measurements as given in ChEMBL document CHEMBL1201862, “PubChem BioAssay data set” (2004).
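Cultured in 96-well plates, cells were exposed to test compound for 48 hours across five concentrations. The concentration for 50% growth inhibition is given as GI50.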 The source made the active and inactive calls. Cut-off read from the data, not from the text of the source: active = GI50 up to about 1.1 µM and inactive = higher.

What was measured:
Test in all cases: NCI anticancer screen, dose series, 48 h
[1] = tested on: MCF7
[2] = tested on: HT-29
[3] = tested on: Hs-578T
[4] = tested on: MDA-N
[5] = tested on: CAKI-1
[6] = tested on: SF-539
[7] = tested on: ACHN
[8] = tested on: NCI-H522
[9] = tested on: NCI-H460
[10] = tested on: EKVX
[11] = tested on: MDA-MB-435
[12] = tested on: SNB-75
[13] = tested on: T47D
[14] = tested on: SW-620
[15] = tested on: M14
[16] = tested on: NCI-H226
[17] = tested on: HOP-62
[18] = tested on: DLD-1
[19] = tested on: SK-MEL-2
[20] = tested on: MOLT-4

Structure (SMILES) | GI50 [1] | GI50 [2] | GI50 [3] | GI50 [4] | GI50 [5] | GI50 [6] | GI50 [7] | GI50 [8] | GI50 [9] | GI50 [10] | GI50 [11] | GI50 [12] | GI50 [13] | GI50 [14] | GI50 [15] | GI50 [16] | GI50 [17] | GI50 [18] | GI50 [19] | GI50 [20]
CCN(CC)CCCNc1ncc(C)c2c1c1ccc3c(O)cccc3c1n2C | 191 nM (active) | 1210 nM (inactive) | 1680 nM (inactive) | 1650 nM (inactive) | 449 nM (active) | 2110 nM (inactive) | 1800 nM (inactive) | 1050 nM (active) | 1020 nM (active) | 3020 nM (inactive) | 8070 nM (inactive) | 1810 nM (inactive) | 17900 nM (inactive) | 883 nM (active) | 4150 nM (inactive) | 3440 nM (inactive) | 964 nM (active) | 1470 nM (inactive) | 12200 nM (inactive) | 43 nM (active)
N=C(N)NS(=O)(=O)c1ccc(NCc2c3ccccc3nc3ccccc23)cc1 | 56.6 nM (active) | 33300 nM (inactive) | 1500 nM (inactive) | 71100 nM (inactive) | 4340 nM (inactive) | 483 nM (active) | 1390 nM (inactive) | 2280 nM (inactive) | 37.1 nM (active) | 10400 nM (inactive) | 32600 nM (inactive) | 608 nM (active) | 1160 nM (inactive) | 1590 nM (inactive) | 4670 nM (inactive) | 421 nM (active) | 678 nM (active) | 23500 nM (inactive) | > 20000 nM (inactive) | 30.8 nM (active)
